Laboratory results reported in paper PMC5421814, “A Sequence in the loop domain of hepatitis C virus E2 protein identified in silico as crucial for the selective binding to human CD81” (PLoS ONE, 2017).
Where two headings read alike, the source gives them in different places. Residues, ends and D or L forms follow the SMILES beside them.

T1: p_R-CD81 (rat)
T1 construct: rat CD81, head domain of the large extracellular loop, residues 167-188; Immobilised on a CM-5 chip by amine coupling; also called rat CD81 peptide; receptor peptide from the head domain region of rat CD81; source: synthetic peptide, bought: GeneMark (GMbiolab Co., Ltd., Taiwan)
T1 peptide: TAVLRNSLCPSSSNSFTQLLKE

T2: p_H-CD81 (human)
T2 construct: human CD81, head domain of the large extracellular loop, residues 167-188; Immobilised on a CM-5 chip by amine coupling; also called human CD81 peptide; receptor peptide from the head domain region of human CD81; source: synthetic peptide, bought: GeneMark (GMbiolab Co., Ltd., Taiwan)
T2 peptide: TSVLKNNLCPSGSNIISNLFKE

B1: p_E2-site2 (peptide)
peptide: RSGAPTYSWGANDTDVF
notes: hepatitis C virus envelope glycoprotein E2, residues 521-537 of the polyprotein; also called E2-site2 peptide; E2-s2; source: synthetic peptide, bought: GeneMark (GMbiolab Co., Ltd., Taiwan)
B2: p_E2-site1 (peptide)
peptide: INSTALNCNESLNTGWLAGLFYQ
notes: hepatitis C virus envelope glycoprotein E2, residues 422-444 of the polyprotein; also called E2-site1 peptide; E2-s1; source: synthetic peptide, bought: GeneMark (GMbiolab Co., Ltd., Taiwan)

Legend:
[1] = molecular target: T3, p_H-CD81 (human CD81 peptide) (Homo sapiens, UniProt P60033); experiment: SPR binding to immobilized human CD81 peptide; details: for SPR response / binding (in words): various concentrations over immobilized human CD81 peptide; for Kd: Biacore T200, CM-5 chip, p_H-CD81 immobilized (~1000 RU), flow 30 µL/min 2 min, steady-state isotherm, monovalent model, average of three measurements ± standard deviation
T3 construct: ^167[…]^188; purchased GeneMark (GMbiolab Co., Ltd., Taiwan); host or cells: chemical synthesis
Source text: (§1) Based on the in silico analysis, peptides were designed for experimental validations of the binding site predictions. Four peptides (p_E2-site1, p_E2-site2, p_H-CD81 and p_R-CD81) designed according to the ZDOCK program and MM/PBSA binding free energy calculations were chemically synthesized and purchased from GeneMark (GMbiolab Co., Ltd., Taiwan). The human and rat CD81 peptides, p_H-CD81 and p_R-CD81, and the HCV E2 peptides, p_E2-site1 and p_E2-site2, were derived from the results of molecular docking between ligand E2 and receptor CD81. Control and HCV E2 mutant peptides were also synthesized (S1 Table) for the SPR and cell based binding measurements to rule out the possible non-specific bindings in the investigations. The HCV E2 mutant peptides were designed based on the mutation studies.
(§2) SPR experiments were conducted to measure the binding efficiency of the designed ligand and receptor peptides. The SPR measurements were performed using a Biacore T200 workstation (GE Healthcare, USA). Peptides p_H-CD81 and p_R-CD81 were diluted to a concentration of 7.5 μM in a 10 mM sodium acetate buffer at pH 4.0 and immobilized onto a CM-5 sensor chip using amine coupling (EDC-NHS) for 5 min at a flow speed of 5 μL/min. Approximately 1000 response units (RU) of p_H-CD81 and p_R-CD81 were immobilized on the chip. In this study, data on the kinetics and affinity of ligand-receptor binding were obtained by flowing several different concentrations of the p_E2-site1 and p_E2-site2 over the chip sequentially at a flow rate of 30 µL/min for 2 min. The response was measured at two time points, 0 and 120 sec, to obtain information on the rate of CD81 peptides association with and dissociation from the p-E2-site1 and p-E2-site2 peptides. Equilibrium binding curves were generated and fitted using a monovalent binding model for each peptide to determine the KD of the binding of E2 peptides (p_E2-site1 and p_E2-site2) with receptor CD81 peptides (p_H-CD81 and p_R-CD81).

[2] = molecular target: T4, p_R-CD81 (rat CD81 peptide) (Rattus norvegicus, UniProt Q62745); experiment: SPR binding to immobilized rat CD81 peptide; details: for SPR response / binding (in words): various concentrations over immobilized rat CD81 peptide; for Kd: steady-state isotherm
T4 construct: ^167[…]^188; purchased GeneMark (GMbiolab Co., Ltd., Taiwan); host or cells: chemical synthesis
Source text: as §1, §2

[3] = molecular target: T1, p_R-CD81; experiment: SPR; Biacore T200; p_H-CD81 or p_R-CD81 (about 1000 RU) immobilised on a CM-5 chip by amine coupling; E2 peptides flowed over at several concentrations, 30 µL/min for 2 min; equilibrium binding curves fitted with a monovalent binding model; details: both partners purified
[4] = molecular target: T2, p_H-CD81; experiment: as above; details: both partners purified

Molecule	SPR response / binding (in words) [1]	SPR response / binding (in words) [2]	Kd [1] [µM]	Kd [3] [µM]	Kd [4] [µM]	other results
SENHLRHCLSCSKCRKEM [p_random-18, control (random) peptide]	not significantly increased	not significantly increased				
CC(C)[C@H](NC(=O)[C@H](CC(=O)O)NC(=O)[C@@H](NC(=O)[C@H](CC(=O)O)NC(=O)[C@H](CC(N)=O)NC(=O)[C@H](C)NC(=O)CNC(=O)[C@H](Cc1c[nH]c2ccccc12)NC(=O)[C@H](CO)NC(=O)[C@H](Cc1ccc(O)cc1)NC(=O)[C@@H](NC(=O)[C@@H]1CCCN1C(=O)[C@H](C)NC(=O)CNC(=O)[C@H](CO)NC(=O)[C@@H](N)CCCNC(=N)N)[C@@H](C)O)[C@@H](C)O)C(=O)N[C@@H](Cc1ccccc1)C(=O)O [p_E2-site2] (H-RSGAPTYSWGANDTDVF-OH)			1.07 ± 0.09			Kd ([2]; p_R-CD81 immobilized, value printed in Fig 6 plot, read-out: KD (printed in the picture, Fig 6)): 6.4 µM
CC[C@H](C)[C@H](N)C(=O)N[C@@H](CC(N)=O)C(=O)N[C@@H](CO)C(=O)N[C@H](C(=O)N[C@@H](C)C(=O)N[C@@H](CC(C)C)C(=O)N[C@@H](CC(N)=O)C(=O)N[C@@H](CS)C(=O)N[C@@H](CC(N)=O)C(=O)N[C@@H](CCC(=O)O)C(=O)N[C@@H](CO)C(=O)N[C@@H](CC(C)C)C(=O)N[C@@H](CC(N)=O)C(=O)N[C@H](C(=O)NCC(=O)N[C@@H](Cc1c[nH]c2ccccc12)C(=O)N[C@@H](CC(C)C)C(=O)N[C@@H](C)C(=O)NCC(=O)N[C@@H](CC(C)C)C(=O)N[C@@H](Cc1ccccc1)C(=O)N[C@@H](Cc1ccc(O)cc1)C(=O)N[C@@H](CCC(N)=O)C(=O)O)[C@@H](C)O)[C@@H](C)O [p_E2-site1] (H-INSTALNCNESLNTGWLAGLFYQ-OH)			7.96 ± 1.7			Kd ([2]; Biacore T200, CM-5 chip, p_R-CD81 immobilized (~1000 RU), flow 30 µL/min 2 min, monovalent model, average of three measurements ± standard deviation, read-out: KD): 13.8 ± 2.46 µM
CPLNGSTVYGHLRHCLSCSGTMVKF [p_random-25, control (random) peptide]	not significantly increased	not significantly increased				
B1				6.38	1.07	
B2				13.8	7.96	
